The values below come from patent US20060004086A1, “Method of reducing Abeta42 and treating diseases” (Mayo Foundation for Medical Education and Research, priority 2000, published 2006).

Structures are written as SMILES. Entries after “also recorded” stand apart in the source; their conditions may differ. Read-outs that look alike come from different tables or passages of the source.

One data set has as its system Aβ42 secretion. In words: Primary in vitro screen, CHO-APP695NL,I,his cells, end-specific Aβ40 and Aβ42 ELISAs. To be noted: for activity at 100 µM / activity at 10 µM: Cricetulus griseus, 6 h; for selective reduction of Aβ42 levels in the primary screen: 10 μM or 100 μM, classification on a 20% change. In kind it is cell-based, Chinese hamster. The method, then:
Aβ40 and Aβ42 levels in culture supernatants were determined for each time points using ELISA.
In a primary screen, the effects of NSAIDs on Aβ42 secretion by a CHO cell line that expressed APP(CHO-APP695NL,I,his) were examined. Duplicate cell cultures were treated with (a) a vehicle, (b) 10 μM of NSAID, or (c) 100 μM of NSAID.
To determine Aβ40 and Aβ42 levels, six-hour culture supernatants taken from cells grown in a single well of a twenty-four-well plate were used in end-specific Aβ40 and Aβ42 ELISAs (Suzuki, et al. (1994) Sci 264:[…]). Aβ40 and Aβ42 levels of cultures treated with NSAID were compared with those of cultures treated with the vehicle alone. […] NSAIDs that caused either selective reduction of Aβ42 levels or reduction in both Aβ40 and Aβ42 levels are subjected to a secondary screen.

The next data set relates to Aβ42 production. The experiment in a line: Aβ42 production in APP695-transfected H4 cells. In kind it is cell-based, human. The method, then:
In a tertiary screen, Aβ production, sAPP production, and toxicity in a human H4 neuroglioma cell line that expressed APP are examined for all FDA-approved NSAIDs and novel NSAIDs that selectively reduce Aβ42 levels. Three doses of each NSAID are tested. The first is a dose that is expected to cause maximum reduction of Aβ42 levels. The second dose is one that reduces Aβ42 levels by 50% of the maximum value, while the third dose is one that reduces Aβ42 levels by 10-20% of the maximum value.

The conditions of data set [1]: plasma concentration of the drug; cited from earlier work.
Data set [2] has as its system brain Aβ42 levels in Tg2576 mice. The experiment in a line: Acute oral dosing of three-month-old Tg2576 mice, brain Aβ ELISA. In kind it is in vivo, mouse. The following applies: for brain Aβ42 levels: three-month old Tg2576 mice, 100 mg/kg/day orally for three days, compared with vehicle. The method, then:
NSAIDs were dissolved in an appropriate vehicle. Dimethyl sulfoxide (DMSO), ethanol, and ethyl acetate are some examples. The NSAID solution was mixed with Kool-Aid and administered orally using a medicine dropper. […] At two hours after the final doses were administered, animals were sacrificed, and SDS soluble Aβ40 and Aβ42 were analyzed using ELISA.
Three month old mice have high levels of soluble Aβ in the brain but no Aβ deposition (see Hsiao et al. (1996) Science 274:99-102). […] Brain levels of SDS-soluble Aβ40 and Aβ42 were measured using ELISA.
Compounds were administered orally.

The mark [3] stands for this setting: 10 μM, six-hour culture supernatants.
Setting [4] is: 100 μM, six-hour culture supernatants.
Where [5] appears, read: 100 μM, six-hour culture supernatants, read-out: % Control % Aβ42.
[6] abbreviates: 100 μM, six-hour culture supernatants, read-out: % Control Aβ40.
[7] abbreviates: 100 μM, six-hour culture supernatants, read-out: % Control Aβ42.
The mark [8] stands for this setting: 10 μM, six-hour culture supernatants, read-out: % Control % Aβ42.
Setting [9] is: 10 μM, six-hour culture supernatants, read-out: % Control Aβ40.
The mark [10] stands for this setting: 10 μM, six-hour culture supernatants, read-out: % Control Aβ42.
[11] abbreviates: Tg2576 mice, three month-old, 50 mg/kg/day orally for three days, SDS-soluble, mean ± SD.
Setting [12] is: Tg2576 mice, treatment for three days, 50 mg/kg/day.

Turning to `CCCCC#CCSc1ccccc1OC(C)=O` [APHS], in the data set with Aβ42 secretion (setting [3]), the “% Control % Aβ42” value is 178%, the “% Control Aβ40” value is on record as 50% and the “% Control Aβ42” value was determined as 114%.

`Cc1cc(NC(=O)C2=C(O)c3ccccc3S(=O)(=O)N2C)no1` [Isoixicam]: in the data set with Aβ42 secretion (setting [4]), the “% Control % Aβ42” value is listed as 103%, the “% Control Aβ40” value worked out at 109% and the “% Control Aβ42” value is listed as 112%.

`CC(C(=O)O)c1ccc(N2Cc3ccccc3C2=O)cc1` (stereo not drawn) [Indoprofen]: the activity at 100 µM is 107% in the data set with Aβ42 secretion (setting [5]), 116% in the data set on Aβ42 secretion (setting [6]) and 126% with Aβ42 secretion (setting [7]).

Take `CN1C(C(=O)Nc2ccccn2)=C(O)c2sccc2S1(=O)=O` [Tenoxicam]: the activity at 100 µM in the data set on Aβ42 secretion (setting [5]) worked out at 112%; in the data set on Aβ42 secretion (setting [6]) it was 80%; in the data set on Aβ42 secretion (setting [7]) it was 92%.

On to `CCc1cccc2c3c([nH]c12)C(CC)(CC(=O)O)OCC3` (stereo not drawn) [Etodolac], for which the activity at 100 µM came to 120% with Aβ42 secretion (setting [5]), 85% in the data set on Aβ42 secretion (setting [6]) and 109% in the data set with Aβ42 secretion (setting [7]).

For `CC(C(=O)O)c1ccc(-c2ccccc2)c(F)c1` (racemic) [Flurbiprofen, flurbiprofen], the “levels of Aβ40 production” value in the data set on Aβ42 production was “not altered”. Moreover, in the data set with Aβ42 production (100 μM), the “Aβ42 levels lowered by” value amounted to 50%.

For `Cc1cnc(NC(=O)C2=C(O)c3ccccc3S(=O)(=O)N2C)s1` [Meloxicam], the activity at 10 µM in the data set with Aβ42 secretion (setting [8]) came out at 158%; in the data set on Aβ42 secretion (setting [9]), 64%; with Aβ42 secretion (setting [10]), 122%. Besides, in data set [1], the Plasma is 15 µM.

For `Cc1cccc(Nc2ccccc2C(=O)O)c1C` [Mefenamic Acid, mefenamic acid], in the data set with Aβ42 secretion, the “selective reduction of Aβ42 levels in the primary screen” value (from here on “selective reduction of Aβ42 levels”) was “selectively reduced Aβ42 levels”. In addition, the activity at 100 µM in the data set on Aβ42 secretion (setting [5]) amounted to 72%; in the data set on Aβ42 secretion (setting [6]), 116%; in the data set on Aβ42 secretion (setting [7]) it was 78%.

Take `O=C(O)c1cc([N+](=O)[O-])ccc1NCCCc1ccccc1` [NPPB, 5-nitro-2-(3-phenylpropylamino)benzoic acid]: the activity at 10 µM in the data set with Aβ42 secretion (setting [8]) was 66%; in the data set with Aβ42 secretion (setting [9]), 81%; with Aβ42 secretion (setting [10]), 48%.

Turning to `O=C(O)CCC(=O)c1ccc(-c2ccccc2)cc1` [Fenbufen], the activity at 100 µM came out at 107% in the data set with Aβ42 secretion (setting [5]), 100% with Aβ42 secretion (setting [6]) and 109% in the data set on Aβ42 secretion (setting [7]).

Regarding `CN(C)CCCOc1nn(Cc2ccccc2)c2ccccc12` [Benzydamine], the activity at 100 µM with Aβ42 secretion (setting [5]) stood at 132%; in the data set with Aβ42 secretion (setting [6]), 90%; in the data set with Aβ42 secretion (setting [7]), 128%.

As for `CC(C(=O)O)c1ccc2c(c1)[nH]c1ccc(Cl)cc12` (stereo not drawn) [Carprofen], the activity at 100 µM with Aβ42 secretion (setting [5]) amounted to 86%; in the data set with Aβ42 secretion (setting [6]) it was 58%; in the data set with Aβ42 secretion (setting [7]), 48%.

For the compound `COc1ccc2c(c1)c(CC(=O)OCC(=O)O)c(C)n2C(=O)c1ccc(Cl)cc1` [Acemetacin], the activity at 100 µM in the data set with Aβ42 secretion (setting [5]) is 93%; in the data set with Aβ42 secretion (setting [6]), 110%; in the data set on Aβ42 secretion (setting [7]), 101%.

Take `CC(C(=O)O)c1cccc(Oc2ccccc2)c1` (stereo not drawn) [Fenoprofen, fenoprofen]: the activity at 100 µM with Aβ42 secretion (setting [5]) is 63%; in the data set on Aβ42 secretion (setting [6]), 102%; in the data set with Aβ42 secretion (setting [7]) it was 60%.

In the case of `CC(C(=O)O)c1cccc(C(=O)c2ccccc2)c1` (stereo not drawn) [Ketoprofen], the figures for the activity at 100 µM in the data set on Aβ42 secretion (setting [5]), with Aβ42 secretion (setting [6]) and in the data set with Aβ42 secretion (setting [7]) were 117%, 88% and 107%, respectively.

Regarding `C[C@H](C(=O)O)c1ccc(-c2ccccc2)c(F)c1` [S-flurbiprofen], in the data set on Aβ42 production, the “levels of Aβ40 production” value is “not altered”. Further, the “Aβ42 levels lowered by” value in the data set on Aβ42 production (100 μM) came to 58%.

Turning to `O=C(O)c1ccccc1Nc1cccc(C(F)(F)F)c1` [Flufenamic Acid, flufenamic acid], the “selective reduction of Aβ42 levels” value in the data set with Aβ42 secretion was “selectively reduced Aβ42 levels”. The activity at 10 µM was 70% with Aβ42 secretion (setting [8]), 99% in the data set on Aβ42 secretion (setting [9]) and 64% in the data set with Aβ42 secretion (setting [10]).

As to `C[C@@H](C(=O)O)c1ccc(-c2ccccc2)c(F)c1` [R-flurbiprofen, (2R)-2-(2-Fluoro-1,1′-biphenyl-4-yl)propanoic acid], the “brain Aβ42 levels” value in data set [2] (100 mg/kg/day) is listed as “more effective at lowering brain Aβ42 in this acute dosing paradigm than S-flurbiprofen; also recorded: lower Aβ42 levels”. Moreover, in the data set on Aβ42 production, the “levels of Aβ40 production” value is recorded as “not altered”. Further, the “Aβ42 levels lowered by” value with Aβ42 production (10 μM) is on record as 20%; with Aβ42 production (100 μM), 49%.

On to `CN1C(C(=O)Nc2ccccn2)=C(O)c2ccccc2S1(=O)=O` [Piroxicam], for which the activity at 100 µM with Aβ42 secretion (setting [5]) was 75%; in the data set with Aβ42 secretion (setting [6]), 142%; in the data set on Aβ42 secretion (setting [7]) it was 101%.

Regarding `COc1ccc(-n2nc(C(F)(F)F)cc2-c2ccc(Cl)cc2)cc1` [SC560], the activity at 10 µM in the data set with Aβ42 secretion (read-out: % Control % Aβ42) came out at 227%; with Aβ42 secretion (read-out: % Control Aβ40), 47%; in the data set on Aβ42 secretion (read-out: % Control Aβ42), 166%.

In the case of `Cc1ccc(-c2cc(C(F)(F)F)nn2-c2ccc(S(N)(=O)=O)cc2)cc1` [Celecoxib, celecoxib], the Plasma in data set [1] was 0.015 µM.

Consider `Cc1ccc(C(C)C)cc2c(C)ccc1-2` [Guaiazulene], for which the values for the activity at 100 µM with Aβ42 secretion (setting [5]), with Aβ42 secretion (setting [6]) and in the data set with Aβ42 secretion (setting [7]) were 156%, 70% and 124%, respectively.

As to `CC(C(=O)O)c1ccc(C(=O)c2cccs2)cc1` (stereo not drawn) [Suprofen], the activity at 100 µM was determined as 102% in the data set with Aβ42 secretion (setting [5]), 126% in the data set on Aβ42 secretion (setting [6]) and 129% in the data set with Aβ42 secretion (setting [7]).

In the case of `Cc1ccc(Cl)c(Nc2ccccc2C(=O)O)c1Cl` [Meclofenamic acid, meclofenamic acid], the “selective reduction of Aβ42 levels” value in the data set on Aβ42 secretion was “selectively reduced Aβ42 levels”. Besides, the “selective reduction of Aβ42, time course” value in the data set with Aβ42 secretion (CHO-APP695NL,I,his cells treated for six, twelve, or twenty-four hours) is recorded as “detectable at six hours”. For the same compound, in the data set with Aβ42 secretion (setting [8]), the activity at 10 µM worked out at 37%. Also, the activity at 10 µM in the data set on Aβ42 secretion (setting [9]) came out at 39%. In addition, the activity at 10 µM with Aβ42 secretion (setting [10]) was 13%. Moreover, in data set [2] (setting [11]), the “Brain levels of Aβ40” value is 2932 ± 289 fmol/gm and the “Brain levels of Aβ42” value is 679 ± 343 fmol/gm. Further, the “% Aβ42 in brain” value in data set [2] (Tg2576 mice, three month-old, 50 mg/kg/day orally for three days, mean ± SD) was 18.6 ± 8.7 %. Besides, in data set [2] (setting [12]), the “Aβ40 levels in the brain” value is recorded as “no change” and the “reduction in Aβ42 levels in the brain” value is reported as “approximately 30%”.

As to `CC(C(=O)O)c1ccc(-c2ccccc2)c(F)c1` (stereo not drawn) [Flurbiprofen, flurbiprofen], the activity at 100 µM with Aβ42 secretion (read-out: % Control % Aβ42) was determined as 80%; in the data set on Aβ42 secretion (read-out: % Control Aβ40), 93%; in the data set on Aβ42 secretion (read-out: % Control Aβ42), 70%. Also, in data set [2], the “brain Aβ42 levels” value was “lower Aβ42 levels”.

For `COc1ccc2cc(CCC(C)=O)ccc2c1` [Nabumetone], the figures for the activity at 100 µM in the data set on Aβ42 secretion (setting [5]), with Aβ42 secretion (setting [6]) and with Aβ42 secretion (setting [7]) were 70%, 157% and 103%, respectively.

Consider `Cc1c(Cl)cccc1Nc1ccccc1C(=O)O` [Tolfenamic Acid, tolfenamic acid], for which, in the data set on Aβ42 secretion, the “selective reduction of Aβ42 levels” value is recorded as “did not”. Further, the figures for the activity at 100 µM in the data set with Aβ42 secretion (setting [5]), with Aβ42 secretion (setting [6]) and with Aβ42 secretion (setting [7]) were 110%, 84% and 95%, respectively.

On to `Oc1ccc(C=Cc2cc(O)cc(O)c2)cc1` [Resveratrol], for which the activity at 10 µM is 130% with Aβ42 secretion (setting [8]), 75% in the data set with Aβ42 secretion (setting [9]) and 107% in the data set with Aβ42 secretion (setting [10]).

As for `O=C(c1ccccc1)c1ccc2n1CCC2C(=O)O` (stereo not drawn) [Ketorlolac], the activity at 10 µM in the data set with Aβ42 secretion (setting [8]) was 142%; in the data set with Aβ42 secretion (setting [9]), 84%; in the data set with Aβ42 secretion (setting [10]) it was 131%.
